Data: patent publication US20100021893A1, “Modulators of lanosterol synthetase for treating acne or hyperseborrhea” (GALDERMA RESEARCH & DEVELOPMENT, priority 2006, published 2010)

Test system: mRNA for lanosterol synthetase in the mouse preputial gland
Settings: gonadectomized male mice, short-term treatment, Affymetrix, effect visible at 18, 24 and 96 hours
Protocol: The expression of the genes was analyzed on an Affymetrix station (microfluidic model; hybridization oven; scanner; computer) following the protocols provided by the company. Briefly, the total RNA isolated from the tissues is transcribed to cDNA. From the double-stranded cDNA, a cRNA labeled with biotin is synthesized using T7 polymerase and a precursor NTP conjugated to biotin. The cRNAs are then fragmented to small sized fragments. All the molecular biology steps are checked using the Agilent “Lab on a chip” system in order to confirm the good efficiencies of the enzymatic reactions. The Affymetrix chip is hybridized with the biotinylated cRNA, rinsed and then fluorescence labeled using a fluorophore conjugated to streptavidin. After washings, the chip is scanned and the results are calculated using the MAS5 software provided by Affymetrix. An expression value is obtained for each gene as well as the indication of the significance of the value obtained. […]
The gene expression was analyzed using the Affymetrix technology described above (FIG. 1A) and the results were then confirmed by the real-time PCR technique (FIG. 1B).
B. Male mice were gonadectomized and were then treated with the vehicle or DHT. […] The RNA was isolated and the expression of the genes was analyzed by the Affymetrix technique. […]

## C[C@]12CCC(=O)C[C@@H]1CC[C@@H]1[C@@H]2CC[C@]2(C)[C@@H](O)CC[C@@H]12 [DHT, Dihydrotestosterone]
  level of expression of the mRNA for lanosterol synthetase: induced
